The record followed here is ChEMBL document CHEMBL5252622, “Discovery of a brain-sparing GIRK1/4 inhibitor for pharmacological cardioversion of atrial fibrillation” (Bioorg Med Chem Lett, 2023).

What is called IC50 is the concentration that inhibits the measured activity by half. The Papp A→B is the apparent permeability from the apical to the basolateral side of a cell layer. Broadly, the solubility is the dissolved amount per volume that the medium holds. A low value points to little dissolved substance.

Each structure is given as a SMILES string. ≈ marks a conversion by molar mass, not a printed value. Calls of active or inactive are those of the source. The rule behind the calls is not given here.

One data set addresses T1, Kir3.1/Kir3.4 (Homo sapiens, UniProt P48544+P48549).
T1 sequence (P48549 whole entry): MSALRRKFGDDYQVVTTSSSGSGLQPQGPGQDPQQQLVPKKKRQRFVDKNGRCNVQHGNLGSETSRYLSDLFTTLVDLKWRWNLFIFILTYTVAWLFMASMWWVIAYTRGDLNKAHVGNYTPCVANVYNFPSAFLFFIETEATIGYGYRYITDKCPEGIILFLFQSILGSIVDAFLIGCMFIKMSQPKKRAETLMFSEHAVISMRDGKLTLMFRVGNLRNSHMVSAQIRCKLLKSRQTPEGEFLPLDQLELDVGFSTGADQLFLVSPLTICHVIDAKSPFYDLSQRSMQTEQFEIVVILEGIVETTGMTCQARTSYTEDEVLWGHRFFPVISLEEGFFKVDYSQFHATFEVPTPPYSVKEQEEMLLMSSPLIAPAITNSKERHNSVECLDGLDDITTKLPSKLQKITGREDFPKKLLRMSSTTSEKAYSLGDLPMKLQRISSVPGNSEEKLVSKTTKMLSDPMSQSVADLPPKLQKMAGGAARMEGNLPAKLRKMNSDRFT
T1 sequence (P48544 whole entry): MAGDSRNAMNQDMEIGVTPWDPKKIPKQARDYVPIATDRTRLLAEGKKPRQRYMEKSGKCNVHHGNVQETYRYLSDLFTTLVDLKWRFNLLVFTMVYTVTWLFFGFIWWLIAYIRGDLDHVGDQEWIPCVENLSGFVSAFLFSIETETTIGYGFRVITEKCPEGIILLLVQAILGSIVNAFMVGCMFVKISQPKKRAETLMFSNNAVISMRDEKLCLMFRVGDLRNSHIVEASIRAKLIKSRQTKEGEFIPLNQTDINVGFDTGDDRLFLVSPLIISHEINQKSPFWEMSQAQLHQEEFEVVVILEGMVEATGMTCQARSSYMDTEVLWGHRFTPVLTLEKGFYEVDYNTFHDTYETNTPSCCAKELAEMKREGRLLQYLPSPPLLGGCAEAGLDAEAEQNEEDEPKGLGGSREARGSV
As to the kind of experiment: Inhibition of recombinant human GIRK1/4 channel. The data set is classed as protein-complex assay.
Settings: not given
For `CS(=O)(=O)CCCOc1ncc(Cl)c2c1c(=O)cc(CO)n2-c1c(Cl)cccc1Cl`, the IC50 was determined as 100 nM.

For the molecule `CSc1c(C#N)c(=O)c2ccc(F)cc2n1-c1c(Cl)cccc1Cl`, the 50% inhibitory concentration (IC50) was determined as 50 nM.

For `O=c1cc(CO)n(-c2c(Cl)cccc2Cl)c2c(Cl)cnc(OCC(O)CO)c12` (centres undefined), the IC50 was determined as 80 nM.

In the case of `O=c1cc(CO)n(-c2c(Cl)cccc2Cl)c2c(Cl)cnc(OC[C@@H](O)CO)c12`, the IC50 came to 150 nM.

In the case of `COc1ncc(Cl)c2c1c(=O)cc(CO)n2-c1c(Cl)cccc1Cl`, the IC50 was 27 nM.

With `Cc1cc(=O)c2c(OCC(O)CO)nc(N3CCOCC3)cc2n1-c1c(Cl)cccc1Cl` (centres undefined), the IC50 was above 5000 nM.

For the molecule `COc1cc(Cl)c(-n2c(C)cc(=O)c3c(F)cncc32)c(Cl)c1`, the IC50 was 2 nM.

Regarding `Cc1cc(=O)c2c(OCC(O)CC(O)CO)ncc(Cl)c2n1-c1c(Cl)cccc1Cl` (centres undefined), the IC50 was 87 nM.

A further data set addresses Kir3.1/Kir3.2 (Homo sapiens) (UniProt P48549+P48051). As to the kind of experiment: Inhibition of recombinant human GIRK1/2 channel.
Settings: not given
The data set is classed as protein-complex assay.
Consider `CSc1c(C#N)c(=O)c2ccc(F)cc2n1-c1c(Cl)cccc1Cl`, for which the inhibition result is “inactive”.

System in another data set: not listed separately
As to the kind of experiment: Apparent permeability across apical to basolateral side in MDCK cells. The data set is classed as ADME, cell-based, Canis lupus familiaris. Particulars: dog.
On to `CS(=O)(=O)CCCOc1ncc(Cl)c2c1c(=O)cc(CO)n2-c1c(Cl)cccc1Cl`, for which the Papp A→B is 10.1 ×10⁻⁶ cm/s.

For the molecule `O=c1cc(CO)n(-c2c(Cl)cccc2Cl)c2c(Cl)cnc(OCC(O)CO)c12` (centres undefined), the Papp A→B was found to be 7 ×10⁻⁶ cm/s.

As to `O=c1cc(CO)n(-c2c(Cl)cccc2Cl)c2c(Cl)cnc(OC[C@@H](O)CO)c12`, the Papp A→B worked out at 5 ×10⁻⁶ cm/s.

Take `COc1ncc(Cl)c2c1c(=O)cc(CO)n2-c1c(Cl)cccc1Cl`: the Papp A→B amounted to 22.6 ×10⁻⁶ cm/s.

Regarding `Cc1cc(=O)c2c(OCC(O)CO)nc(N3CCOCC3)cc2n1-c1c(Cl)cccc1Cl` (centres undefined), the Papp A→B turned out to be 13.1 ×10⁻⁶ cm/s.

Turning to `COc1cc(Cl)c(-n2c(C)cc(=O)c3c(F)cncc32)c(Cl)c1`, the Papp A→B came out at 39.1 ×10⁻⁶ cm/s.

With `Cc1cc(=O)c2c(OCC(O)CC(O)CO)ncc(Cl)c2n1-c1c(Cl)cccc1Cl` (centres undefined), the Papp A→B turned out to be 16.6 ×10⁻⁶ cm/s.

System in another data set: not listed separately
Kind of data set: Intrinsic clearance in human liver microsomes. The data set is classed as ADME, Microsome. Particulars: read-out: CLH. (In general: Liver microsomes are a subcellular fraction often used to study metabolism.)
With `CSc1c(C#N)c(=O)c2ccc(F)cc2n1-c1c(Cl)cccc1Cl`, the microsomal CLint is 77 µL/min/mg.

In another data set the target is Voltage-dependent L-type calcium channel subunit alpha-1C (Homo sapiens, UniProt Q13936). Kind of data set: Inhibition of recombinant human Cav1.2. The data set is classed as toxicity.
Sequence of Voltage-dependent L-type calcium channel subunit alpha-1C (Q13936 whole entry): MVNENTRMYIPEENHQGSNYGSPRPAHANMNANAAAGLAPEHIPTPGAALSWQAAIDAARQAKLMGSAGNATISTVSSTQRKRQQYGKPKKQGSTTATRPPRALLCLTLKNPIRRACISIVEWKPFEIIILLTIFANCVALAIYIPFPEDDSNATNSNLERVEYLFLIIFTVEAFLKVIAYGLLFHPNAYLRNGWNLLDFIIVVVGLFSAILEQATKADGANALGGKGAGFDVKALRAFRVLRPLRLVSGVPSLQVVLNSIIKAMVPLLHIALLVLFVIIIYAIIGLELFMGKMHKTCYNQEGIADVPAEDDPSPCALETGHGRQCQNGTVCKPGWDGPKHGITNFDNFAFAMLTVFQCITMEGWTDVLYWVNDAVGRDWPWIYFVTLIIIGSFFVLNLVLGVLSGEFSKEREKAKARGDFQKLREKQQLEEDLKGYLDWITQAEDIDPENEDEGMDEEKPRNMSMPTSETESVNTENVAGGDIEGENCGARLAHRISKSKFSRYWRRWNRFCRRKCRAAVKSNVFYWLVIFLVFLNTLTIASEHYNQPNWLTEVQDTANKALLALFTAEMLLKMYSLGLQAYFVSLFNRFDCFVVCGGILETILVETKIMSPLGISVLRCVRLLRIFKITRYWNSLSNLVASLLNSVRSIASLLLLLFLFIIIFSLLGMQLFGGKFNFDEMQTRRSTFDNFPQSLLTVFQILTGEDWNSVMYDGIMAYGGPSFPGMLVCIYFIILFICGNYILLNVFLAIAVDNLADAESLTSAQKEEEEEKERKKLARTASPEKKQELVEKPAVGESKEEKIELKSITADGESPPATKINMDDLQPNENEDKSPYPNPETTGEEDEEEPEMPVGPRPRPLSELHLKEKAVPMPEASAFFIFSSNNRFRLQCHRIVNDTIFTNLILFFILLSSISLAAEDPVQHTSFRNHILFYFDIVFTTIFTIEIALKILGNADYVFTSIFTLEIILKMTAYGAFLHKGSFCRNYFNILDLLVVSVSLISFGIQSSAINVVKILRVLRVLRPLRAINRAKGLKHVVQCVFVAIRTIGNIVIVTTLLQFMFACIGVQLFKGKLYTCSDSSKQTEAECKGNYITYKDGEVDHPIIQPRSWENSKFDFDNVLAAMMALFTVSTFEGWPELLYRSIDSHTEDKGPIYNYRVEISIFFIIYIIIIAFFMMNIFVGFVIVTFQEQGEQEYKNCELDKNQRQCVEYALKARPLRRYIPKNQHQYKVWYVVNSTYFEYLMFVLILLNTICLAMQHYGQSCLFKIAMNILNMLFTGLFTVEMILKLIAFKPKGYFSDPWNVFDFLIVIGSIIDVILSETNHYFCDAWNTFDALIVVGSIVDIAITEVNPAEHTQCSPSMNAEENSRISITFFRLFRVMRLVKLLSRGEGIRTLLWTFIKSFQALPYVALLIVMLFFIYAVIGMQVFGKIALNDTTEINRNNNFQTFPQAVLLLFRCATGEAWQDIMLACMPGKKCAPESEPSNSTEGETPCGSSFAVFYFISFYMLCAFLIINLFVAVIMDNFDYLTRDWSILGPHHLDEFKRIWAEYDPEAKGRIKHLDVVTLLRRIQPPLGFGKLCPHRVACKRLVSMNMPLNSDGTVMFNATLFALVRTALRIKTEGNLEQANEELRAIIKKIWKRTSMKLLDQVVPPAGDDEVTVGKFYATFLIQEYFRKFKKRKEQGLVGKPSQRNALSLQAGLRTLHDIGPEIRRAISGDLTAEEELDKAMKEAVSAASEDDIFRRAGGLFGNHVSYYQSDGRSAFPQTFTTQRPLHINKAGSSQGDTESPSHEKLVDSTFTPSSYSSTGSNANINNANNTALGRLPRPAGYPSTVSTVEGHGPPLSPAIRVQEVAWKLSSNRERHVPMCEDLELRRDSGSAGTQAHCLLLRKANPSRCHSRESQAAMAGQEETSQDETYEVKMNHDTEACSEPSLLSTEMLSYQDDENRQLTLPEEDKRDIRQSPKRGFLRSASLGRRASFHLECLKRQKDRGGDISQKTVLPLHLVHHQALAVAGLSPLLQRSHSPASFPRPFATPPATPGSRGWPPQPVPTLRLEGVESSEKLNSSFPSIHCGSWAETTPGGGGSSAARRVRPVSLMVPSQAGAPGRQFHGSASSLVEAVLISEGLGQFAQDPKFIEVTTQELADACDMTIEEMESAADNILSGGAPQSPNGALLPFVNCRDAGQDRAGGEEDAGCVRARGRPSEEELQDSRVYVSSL
Settings: not given
As to `CSc1c(C#N)c(=O)c2ccc(F)cc2n1-c1c(Cl)cccc1Cl`, the IC50 stood at 24200 nM.

For the molecule `O=c1cc(CO)n(-c2c(Cl)cccc2Cl)c2c(Cl)cnc(OC[C@@H](O)CO)c12`, the IC50 is above 50000 nM.

The target of the next data set is Voltage-gated inwardly rectifying potassium channel KCNH2 (Homo sapiens, UniProt Q12809). As to the kind of experiment: Inhibition of recombinant hERG in the presence of dofetilide by competitive binding assay. The data set is classed as toxicity.
Sequence of Voltage-gated inwardly rectifying potassium channel KCNH2 (Q12809 whole entry): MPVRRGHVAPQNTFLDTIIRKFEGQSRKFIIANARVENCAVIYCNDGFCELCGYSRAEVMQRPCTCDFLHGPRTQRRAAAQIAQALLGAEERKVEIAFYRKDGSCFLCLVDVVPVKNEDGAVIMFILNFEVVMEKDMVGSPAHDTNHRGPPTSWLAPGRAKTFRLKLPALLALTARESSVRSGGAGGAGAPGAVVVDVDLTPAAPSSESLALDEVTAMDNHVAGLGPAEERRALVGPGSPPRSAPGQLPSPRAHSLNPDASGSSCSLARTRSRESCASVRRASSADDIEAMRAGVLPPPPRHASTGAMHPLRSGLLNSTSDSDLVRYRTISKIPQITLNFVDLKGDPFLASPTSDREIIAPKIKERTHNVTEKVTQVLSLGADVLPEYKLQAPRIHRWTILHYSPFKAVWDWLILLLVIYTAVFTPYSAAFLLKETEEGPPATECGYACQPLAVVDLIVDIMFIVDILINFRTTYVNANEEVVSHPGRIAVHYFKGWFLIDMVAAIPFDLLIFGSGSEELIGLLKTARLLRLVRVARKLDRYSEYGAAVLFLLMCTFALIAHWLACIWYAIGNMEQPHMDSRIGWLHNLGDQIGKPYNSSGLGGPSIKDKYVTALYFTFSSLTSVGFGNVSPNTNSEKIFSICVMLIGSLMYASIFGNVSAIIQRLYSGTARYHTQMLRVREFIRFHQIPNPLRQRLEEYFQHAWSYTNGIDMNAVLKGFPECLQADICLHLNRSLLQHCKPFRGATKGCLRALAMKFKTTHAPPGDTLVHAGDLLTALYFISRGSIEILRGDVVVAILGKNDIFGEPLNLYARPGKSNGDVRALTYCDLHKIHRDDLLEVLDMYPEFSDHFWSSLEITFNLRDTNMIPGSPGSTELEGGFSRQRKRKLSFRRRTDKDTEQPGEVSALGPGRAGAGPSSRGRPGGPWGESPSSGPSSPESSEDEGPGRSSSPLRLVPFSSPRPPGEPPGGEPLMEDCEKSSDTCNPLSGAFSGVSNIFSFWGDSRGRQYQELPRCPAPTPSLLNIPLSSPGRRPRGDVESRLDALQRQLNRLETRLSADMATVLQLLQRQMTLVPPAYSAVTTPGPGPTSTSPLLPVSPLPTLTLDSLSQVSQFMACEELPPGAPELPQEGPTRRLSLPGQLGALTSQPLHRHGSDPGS
Settings: not given
Background: Block of hERG is tested as a sign of cardiac risk.
`CSc1c(C#N)c(=O)c2ccc(F)cc2n1-c1c(Cl)cccc1Cl`: the concentration for half-maximal inhibition (IC50) is above 30000 nM.

`O=c1cc(CO)n(-c2c(Cl)cccc2Cl)c2c(Cl)cnc(OC[C@@H](O)CO)c12`: the concentration for half-maximal inhibition (IC50) is above 50000 nM.

Another data set concerns the target T2, Potassium voltage-gated channel subfamily KQT member 1 (Homo sapiens, UniProt P51787).
T2 sequence (P51787 whole entry): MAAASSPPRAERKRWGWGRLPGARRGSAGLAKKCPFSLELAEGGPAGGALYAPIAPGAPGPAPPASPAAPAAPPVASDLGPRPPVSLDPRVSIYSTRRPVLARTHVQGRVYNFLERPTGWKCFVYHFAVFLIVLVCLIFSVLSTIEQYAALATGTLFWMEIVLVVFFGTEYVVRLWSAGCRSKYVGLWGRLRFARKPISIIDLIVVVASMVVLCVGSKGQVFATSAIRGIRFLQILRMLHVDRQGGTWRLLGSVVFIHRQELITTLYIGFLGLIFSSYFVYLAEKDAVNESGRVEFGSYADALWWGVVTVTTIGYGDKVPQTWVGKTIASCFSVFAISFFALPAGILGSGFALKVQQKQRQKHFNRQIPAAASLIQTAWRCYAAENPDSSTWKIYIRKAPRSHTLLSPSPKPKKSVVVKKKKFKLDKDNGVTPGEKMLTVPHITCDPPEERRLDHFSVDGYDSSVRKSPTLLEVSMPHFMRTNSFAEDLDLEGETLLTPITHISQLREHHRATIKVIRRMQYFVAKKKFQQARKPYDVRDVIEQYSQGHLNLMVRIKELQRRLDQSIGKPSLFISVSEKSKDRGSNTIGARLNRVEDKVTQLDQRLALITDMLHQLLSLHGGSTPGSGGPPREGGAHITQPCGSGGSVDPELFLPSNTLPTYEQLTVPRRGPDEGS
As to the kind of experiment: Inhibition of recombinant human KCNQ1.
Settings: not given
The data set is classed as toxicity.
As for `CSc1c(C#N)c(=O)c2ccc(F)cc2n1-c1c(Cl)cccc1Cl`, the half-maximal inhibitory concentration (IC50) was found to be 33000 nM.

Consider `O=c1cc(CO)n(-c2c(Cl)cccc2Cl)c2c(Cl)cnc(OC[C@@H](O)CO)c12`, for which the IC50 was above 50000 nM.

System in a further data set: not listed separately
As to the kind of experiment: Aqueous solubility of the compound at pH 6.8.
Settings: not given
The data set is classed as physicochemical.
As for `CS(=O)(=O)CCCOc1ncc(Cl)c2c1c(=O)cc(CO)n2-c1c(Cl)cccc1Cl`, the concentration in solution (solubility) was 500 µM (≈ 246 µg/mL).

`CSc1c(C#N)c(=O)c2ccc(F)cc2n1-c1c(Cl)cccc1Cl` gave a solubility of 13 µM (≈ 4.93 µg/mL).

In turn, `O=c1cc(CO)n(-c2c(Cl)cccc2Cl)c2c(Cl)cnc(OCC(O)CO)c12` (centres undefined) displayed a solubility of 700 µM (≈ 312 µg/mL).

Consider `COc1ncc(Cl)c2c1c(=O)cc(CO)n2-c1c(Cl)cccc1Cl`, for which the solubility amounted to 89 µM (≈ 34.3 µg/mL).

Molecule `Cc1cc(=O)c2c(OCC(O)CO)nc(N3CCOCC3)cc2n1-c1c(Cl)cccc1Cl` (centres undefined) showed a solubility of 680 µM (≈ 327 µg/mL).

`COc1cc(Cl)c(-n2c(C)cc(=O)c3c(F)cncc32)c(Cl)c1` returned a solubility of 46 µM (≈ 16.2 µg/mL).

In turn, `Cc1cc(=O)c2c(OCC(O)CC(O)CO)ncc(Cl)c2n1-c1c(Cl)cccc1Cl` (centres undefined) returned a solubility of 230 µM (≈ 109 µg/mL).

System in another data set: not listed separately
Kind of data set: Intrinsic clearance in rat liver microsomes. The data set is classed as ADME, Microsome. Particulars: read-out: CLH.
Take `CSc1c(C#N)c(=O)c2ccc(F)cc2n1-c1c(Cl)cccc1Cl`: the microsomal CLint turned out to be 236 µL/min/mg.

The next data set deals with Sodium channel protein type 5 subunit alpha (Homo sapiens, UniProt Q14524). Kind of data set: Inhibition of recombinant human Nav1.5. The data set is classed as toxicity.
Settings: not given
As for `CSc1c(C#N)c(=O)c2ccc(F)cc2n1-c1c(Cl)cccc1Cl`, the IC50 is above 50000 nM.

For the molecule `O=c1cc(CO)n(-c2c(Cl)cccc2Cl)c2c(Cl)cnc(OC[C@@H](O)CO)c12`, the half-inhibitory concentration (IC50) is above 50000 nM.

The test system of a further data set is MDCK. As to the kind of experiment: Substrate activity at p-glycoprotein in MDCK cells overexpressing MDR1 assessed as efflux ratio of permeability from basolateral to apical side over apical to basolateral side. Particulars: Canis lupus familiaris. The data set is classed as cell-based.
For the molecule `CS(=O)(=O)CCCOc1ncc(Cl)c2c1c(=O)cc(CO)n2-c1c(Cl)cccc1Cl`, the Ratio is 40.7.

Consider `O=c1cc(CO)n(-c2c(Cl)cccc2Cl)c2c(Cl)cnc(OCC(O)CO)c12` (centres undefined), for which the Ratio was 12.1.

For the molecule `O=c1cc(CO)n(-c2c(Cl)cccc2Cl)c2c(Cl)cnc(OC[C@@H](O)CO)c12`, the Ratio amounted to 10.6.

`COc1ncc(Cl)c2c1c(=O)cc(CO)n2-c1c(Cl)cccc1Cl`: the Ratio came out at 2.7.

Turning to `COc1cc(Cl)c(-n2c(C)cc(=O)c3c(F)cncc32)c(Cl)c1`, the Ratio is 1.1.

Regarding `Cc1cc(=O)c2c(OCC(O)CC(O)CO)ncc(Cl)c2n1-c1c(Cl)cccc1Cl` (centres undefined), the Ratio is 4.5.
